Data published in US12465610B2, “Compounds and methods for the treatment of PKR-associated diseases” (Board of Regents, The University of Texas System, priority 2019, dated 2025).

Key:
[1] = molecular target: PKR (Homo sapiens, UniProt P19525); test: ADP-Glo kinase assay, high-throughput enzymatic screening (Reaction Biology); type: biochemical
[2] = test system: normal cells (HBE, human mammary epithelial cells); test: SRB cell viability assay, normal cells; type: cell-based; conditions: 72 hours after treatment, HBE and human mammary epithelial cells
Procedure: (§1) The effects of Pac 1 and Pac 2 were next examined on PKR protein expression in HeLa cells using Western blot analysis. […] No reduction in normal cell viability was observed after treatment with Pac 1 or Pac 2 (FIGS. 5F and G). […] Because most of the cancer cell lines that were tested were more sensitive to Pac 1 than to Pac 2, Pac 1 was further investigated.
(§2) Cell viability assays: For SRB assays, cells (2-8×10^3/well in 100 μL of culture medium) were seeded in 96-well flat-bottomed plates and treated the next day with compounds at the indicated concentrations. After the indicated treatments, cells were fixed with trichloroacetic acid. The protein was stained with SRB, and the optical density at 570 nm was determined. Relative cell viability was calculated by setting the viability rate of the control cells (exposed only to dimethyl sulfoxide) at 100% and comparing the viability of the treated cells with that of the controls. The experiments were performed at least three times for each cell line. The viability of leukemia cell lines was determined by using a 3-(4,5-dimethylthiazol-2-yl)-2,5-diphenyltetrazolium bromide assay.
For the SRB assay, cells (2-8×10^3/well in 100 μL of culture medium) were seeded in 96-well flat-bottomed plates and treated the next day with compounds at the indicated concentrations. […] The cells were stained using SRB, and the optical density at 570 nm was determined. […]

[3] = molecular target: PI3 Kg (Homo sapiens, UniProt P48736); test: ADP-Glo kinase assay, high-throughput enzymatic screening (Reaction Biology); type: biochemical
[4] = molecular target: PI4KIIb (Homo sapiens, UniProt Q8TCG2); test: as above; type: biochemical
[5] = test system: 127 human lung cancer cell lines; test: SRB assay, oncopanel of 127 lung cancer cell lines; type: cell-based
From the text: Antiproliferative effect of Pac 1 and Pac 2 on an oncopanel of lung cancer cell lines: The antiproliferative effect of treatment with Pac1 were further tested on an oncopanel of 127 cell lines of various lung tumor origins. […] RPPA analysis of Pac 1-sensitive cells identified correlation with higher expression of GSK3 (FIG. 16B), and Pac 1-resistant cells correlation with higher expression of IRS1, Caveolin and PKCA (PS657) (FIG. 16B). Analyzed the Pac1 sensitivity with gene mutation observed that low Pac 1 IC50 correlated with VCAN and ZNF804A mutation, and high Pac 1 IC50 correlated with LOXHD1 and CDH12 mutation (FIG. 16C). VCAN mutant lung cancer cells are sensitive to treatment of Pac 1.
as §2

[6] = test system: MDA-MB-231 tumor xenografts; test: Tumor xenograft growth in mice; type: in vivo; conditions: intravenous injection, over 4 weeks
Procedure: as §1
(§3) Analysis of in vivo tumor growth after treatment with Pac 1: For in vivo tumor studies, MDA-MB-231 or H1299 cells (˜1×10^6) were resuspended in 0.1 mL of PBS and injected subcutaneously into the flanks of female severe combined immunodeficiency mice. When the resulting tumors reached 100-150 mm^3 in volume, the mice were stratified into groups of eight animals, with each group having approximately equal mean tumor volumes, and administered intravenous injection of Pac 1. The animals were weighed weekly, and their tumor diameters were measured twice weekly. When a tumor reached 2000 mm^3 or became necrotic, the animal was killed.

[7] = test system: H1299 tumor xenografts; test: Tumor xenograft growth in mice; type: in vivo
Procedure: as §1, §3

[8] = test system: acidic vesicular organelles (lysosomes); test: LysoTracker Red staining; type: cell-based, human; conditions: HeLa, H1299, and MDA-MB-231 cells, 5 μM, 72 hours
From the text: Western blotting was next used to evaluate proteins known to be involved in AP-1/2/3 complexes in lung (H1299) and breast (MDA-MB-231) cancer cells after treatment with Pac 1 or Pac 2. […] AP-1 and AP-2 mediate protein sorting in the endosome, trans-Golgi network, and plasma membrane. […] The impact of Pac 1 was then investigated on lysosome function by staining cells with the acidophilic dye LysoTracker Red.
LysoTracker red staining, confocal microscopy, and tem: The acidophilic dye LysoTracker Red stains lysosomes. Cancer cells (1×10^5 cells/well) were grown on two-well chamber slides (Becton Dickinson Labware, Bedford, MA) to 70% confluence and then treated with PKR siRNA or control siRNA. Forty-eight hours later (when cells had grown to 70-80% confluence), the medium was replaced with medium containing 75 nM LysoTracker Red. The cells were incubated with LysoTracker Red for 1 hour and then rinsed one time with 1 mL of PBS. The cells were kept in PBS for microscopic imaging.

[9] = Toxicity in mice; conditions: 50 mg/kg intravenously daily for 7 days
[10] = test system: PKR and p-PKR; test: Western blot of PKR and p-PKR protein expression; type: cell-based, human
[11] = test system: HeLa cells; test: SRB cell viability assay; type: cell-based, human; conditions: 72 hours after treatment
Procedure: Anticancer effects of PKR-targeting compounds depend on PKR expression status: To identify compounds that can target lysosomes in PKR-positive cells or MVBs/exosomes in PKR-negative cells, the 10,000-compound ChemBridge library was screened for compounds with different effects on the growth of HeLa and HeLaPKRkd cells. […] SRB assays were next used to determine cell viability after treatment with Pac 1 or Pac 2.
as §2
Identification of PKR-associated compounds and cytotoxicity studies: The library of 10,000 compounds was screened for those with different effects on the growth of HeLa and HeLaPKRkd cells. […] Treated cells were observed under a microscope to detect morphologic changes, and their viability was determined using SRB assays 2 and 3 days after treatment. […]
For the SRB assay, cells (2-8×10^3/well in 100 μL of culture medium) were seeded in 96-well flat-bottomed plates and treated the next day with compounds at the indicated concentrations. […] The cells were stained using SRB, and the optical density at 570 nm was determined. Relative cell viability was determined by setting the viability of the control cells (exposed only to dimethyl sulfoxide) at 100% and comparing their viability with that of the treated cells. […]

[12] = molecular target: PI3Kb (Homo sapiens, UniProt P42338); test: ADP-Glo kinase assay, high-throughput enzymatic screening (Reaction Biology); type: biochemical
PI3Kb, sequence (P42338 whole entry): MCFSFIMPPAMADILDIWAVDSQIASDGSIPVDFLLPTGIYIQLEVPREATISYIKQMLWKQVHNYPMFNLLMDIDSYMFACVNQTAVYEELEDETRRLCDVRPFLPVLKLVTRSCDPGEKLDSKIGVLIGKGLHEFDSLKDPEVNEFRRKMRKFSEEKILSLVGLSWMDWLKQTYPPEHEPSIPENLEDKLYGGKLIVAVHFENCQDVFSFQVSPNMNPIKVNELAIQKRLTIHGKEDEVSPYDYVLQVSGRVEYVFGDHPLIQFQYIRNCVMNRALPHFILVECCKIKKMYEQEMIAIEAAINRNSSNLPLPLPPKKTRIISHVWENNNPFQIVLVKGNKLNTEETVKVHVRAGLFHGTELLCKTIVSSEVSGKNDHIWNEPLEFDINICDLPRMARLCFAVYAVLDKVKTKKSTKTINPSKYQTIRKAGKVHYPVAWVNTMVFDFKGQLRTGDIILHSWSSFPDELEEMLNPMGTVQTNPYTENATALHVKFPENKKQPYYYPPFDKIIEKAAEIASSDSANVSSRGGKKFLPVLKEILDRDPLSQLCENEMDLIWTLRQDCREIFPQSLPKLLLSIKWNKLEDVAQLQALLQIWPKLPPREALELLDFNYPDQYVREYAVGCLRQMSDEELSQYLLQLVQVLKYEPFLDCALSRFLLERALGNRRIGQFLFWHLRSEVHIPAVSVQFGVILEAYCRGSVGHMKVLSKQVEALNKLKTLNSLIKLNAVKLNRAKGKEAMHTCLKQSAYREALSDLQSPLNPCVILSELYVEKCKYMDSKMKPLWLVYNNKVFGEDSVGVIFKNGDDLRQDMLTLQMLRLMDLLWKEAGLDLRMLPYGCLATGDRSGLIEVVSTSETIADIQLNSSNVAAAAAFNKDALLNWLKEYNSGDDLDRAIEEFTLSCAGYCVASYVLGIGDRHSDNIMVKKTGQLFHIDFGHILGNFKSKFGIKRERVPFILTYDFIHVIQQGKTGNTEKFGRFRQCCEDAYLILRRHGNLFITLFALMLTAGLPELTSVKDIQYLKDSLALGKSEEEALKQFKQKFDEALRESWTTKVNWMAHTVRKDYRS
PI3Kb, sequence (P27986 whole entry partner): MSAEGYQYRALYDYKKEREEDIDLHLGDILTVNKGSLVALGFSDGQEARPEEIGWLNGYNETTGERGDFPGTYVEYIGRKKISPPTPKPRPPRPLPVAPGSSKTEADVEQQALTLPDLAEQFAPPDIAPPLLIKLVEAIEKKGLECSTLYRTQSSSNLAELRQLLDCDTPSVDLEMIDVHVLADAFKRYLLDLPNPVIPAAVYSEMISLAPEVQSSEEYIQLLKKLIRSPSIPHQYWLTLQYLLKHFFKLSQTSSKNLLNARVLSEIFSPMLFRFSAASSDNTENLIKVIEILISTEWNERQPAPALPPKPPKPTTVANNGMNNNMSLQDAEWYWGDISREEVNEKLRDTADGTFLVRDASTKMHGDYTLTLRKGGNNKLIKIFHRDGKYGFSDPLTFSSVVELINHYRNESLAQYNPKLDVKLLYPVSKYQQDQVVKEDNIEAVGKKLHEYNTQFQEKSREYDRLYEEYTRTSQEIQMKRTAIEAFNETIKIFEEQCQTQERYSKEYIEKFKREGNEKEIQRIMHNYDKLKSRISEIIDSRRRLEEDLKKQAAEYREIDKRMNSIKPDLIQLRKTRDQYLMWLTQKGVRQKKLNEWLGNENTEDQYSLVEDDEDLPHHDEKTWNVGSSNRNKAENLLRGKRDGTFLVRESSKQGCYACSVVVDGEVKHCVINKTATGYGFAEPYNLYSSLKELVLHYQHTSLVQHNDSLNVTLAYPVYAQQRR

PKR, sequence (P19525 whole entry): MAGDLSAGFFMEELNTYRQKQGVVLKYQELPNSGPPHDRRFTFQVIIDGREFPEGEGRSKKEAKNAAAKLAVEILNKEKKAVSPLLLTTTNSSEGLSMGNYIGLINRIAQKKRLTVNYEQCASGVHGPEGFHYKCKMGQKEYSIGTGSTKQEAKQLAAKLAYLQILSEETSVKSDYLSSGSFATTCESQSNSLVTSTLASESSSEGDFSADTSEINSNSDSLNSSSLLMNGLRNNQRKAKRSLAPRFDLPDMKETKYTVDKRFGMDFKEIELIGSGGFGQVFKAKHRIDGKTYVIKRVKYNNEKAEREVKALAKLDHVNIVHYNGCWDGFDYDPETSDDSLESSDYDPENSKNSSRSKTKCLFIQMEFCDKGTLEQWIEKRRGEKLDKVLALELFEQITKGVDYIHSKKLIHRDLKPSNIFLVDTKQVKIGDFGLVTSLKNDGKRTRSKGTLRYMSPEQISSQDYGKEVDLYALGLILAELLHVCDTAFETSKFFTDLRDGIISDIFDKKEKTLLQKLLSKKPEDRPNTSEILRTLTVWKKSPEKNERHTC
PI4KIIb, sequence (Q8TCG2 whole entry): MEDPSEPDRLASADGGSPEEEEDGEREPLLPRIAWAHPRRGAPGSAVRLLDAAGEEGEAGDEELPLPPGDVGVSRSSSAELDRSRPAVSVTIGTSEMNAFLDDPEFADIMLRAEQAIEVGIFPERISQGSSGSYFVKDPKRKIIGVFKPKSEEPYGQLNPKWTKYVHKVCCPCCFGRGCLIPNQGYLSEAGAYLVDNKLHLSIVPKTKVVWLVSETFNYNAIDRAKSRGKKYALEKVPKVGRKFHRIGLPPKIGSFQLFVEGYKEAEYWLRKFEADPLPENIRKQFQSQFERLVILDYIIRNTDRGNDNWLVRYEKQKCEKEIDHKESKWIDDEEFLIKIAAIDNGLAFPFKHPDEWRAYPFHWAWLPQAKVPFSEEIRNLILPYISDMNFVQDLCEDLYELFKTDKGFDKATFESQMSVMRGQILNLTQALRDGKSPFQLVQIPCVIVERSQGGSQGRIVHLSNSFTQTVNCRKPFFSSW
PI3 Kg, sequence (P48736 whole entry): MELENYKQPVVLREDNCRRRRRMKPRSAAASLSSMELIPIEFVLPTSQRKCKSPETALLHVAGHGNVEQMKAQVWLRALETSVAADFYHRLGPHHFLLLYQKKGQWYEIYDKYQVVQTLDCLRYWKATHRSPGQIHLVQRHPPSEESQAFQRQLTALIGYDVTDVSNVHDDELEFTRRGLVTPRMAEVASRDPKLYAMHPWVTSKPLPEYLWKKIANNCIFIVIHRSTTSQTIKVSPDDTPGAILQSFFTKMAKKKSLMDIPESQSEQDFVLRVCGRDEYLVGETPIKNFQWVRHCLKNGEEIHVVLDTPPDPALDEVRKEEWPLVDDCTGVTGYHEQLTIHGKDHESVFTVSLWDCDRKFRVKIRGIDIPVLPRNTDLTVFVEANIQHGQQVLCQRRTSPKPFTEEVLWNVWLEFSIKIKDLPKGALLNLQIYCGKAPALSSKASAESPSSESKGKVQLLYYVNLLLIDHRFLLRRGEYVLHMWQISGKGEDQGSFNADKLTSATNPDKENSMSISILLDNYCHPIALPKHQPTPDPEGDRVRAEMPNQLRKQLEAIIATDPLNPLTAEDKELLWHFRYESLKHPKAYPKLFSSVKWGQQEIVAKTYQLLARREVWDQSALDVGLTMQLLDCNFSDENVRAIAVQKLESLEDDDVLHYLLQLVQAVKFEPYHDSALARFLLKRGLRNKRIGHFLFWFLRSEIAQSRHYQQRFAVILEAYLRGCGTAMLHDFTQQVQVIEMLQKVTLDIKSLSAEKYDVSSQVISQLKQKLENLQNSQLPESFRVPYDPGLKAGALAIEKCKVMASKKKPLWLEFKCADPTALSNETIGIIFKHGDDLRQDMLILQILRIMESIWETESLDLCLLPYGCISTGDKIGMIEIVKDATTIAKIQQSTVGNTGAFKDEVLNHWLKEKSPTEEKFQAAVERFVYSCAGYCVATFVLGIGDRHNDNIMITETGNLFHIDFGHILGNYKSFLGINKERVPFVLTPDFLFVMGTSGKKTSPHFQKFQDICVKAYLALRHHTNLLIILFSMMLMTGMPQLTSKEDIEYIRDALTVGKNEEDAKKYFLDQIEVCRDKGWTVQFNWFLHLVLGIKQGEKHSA

O=C(N/N=C\c1c(O)ccc2ccccc12)c1cccc2cc[nH]c12 [Pac 1, N′—[(Z)-(2-Hydroxy-1-naphthyl)methylene]-1H-indole-7-carbohydrazide]
inhibition of PKR kinase activity [1]: did not inhibit
normal cell viability [2]: No reduction
inhibition of kinase activity [3]: not other kinases
inhibition of kinase activity [4]: not other kinases
IC50 ([5]; Homo sapiens, sensitive cell lines of the oncopanel of 127 lung cancer cell lines): 10 to 950 nM
sensitivity of VCAN mutant lung cancer cells ([5]; VCAN mutants versus VCAN wild-type cells): sensitive
share of cell lines sensitive ([5]; oncopanel of 127 cell lines of various lung tumor origins): Sixty-five
growth of MDA-MB-231 tumor xenografts [6]: inhibited the growth
expression of PKR, p-PKR, and Ki-67 protein in tumors ([7]; H1299 tumors, immunohistochemical analysis): dramatically suppressed
growth of H1299 tumor xenografts ([7]; intravenous injection, over 4 weeks): inhibited the growth
numbers of acidic vesicular organelles [8]: substantially decreased
blood chemistry: aspartate aminotransferase, SGOT, SGPT, alkaline phosphatase, creatine kinase, lactate dehydrogenase levels [9]: normal
histopathologic examination of major organs ([9]; heart, lungs, liver, kidneys, pancreas, spleen): no significant changes in any major organs
PKR and p-PKR expression ([10]; A549 and H1299 cells, 5 μM, 72 hours): markedly reduced
expression of PKR and p-PKR ([10]; HeLa cells, 72 hours after treatment): significantly reduced
PKR, p-PKR, and PI4K2A expression ([10]; LOVO colon cancer cells, 72 hours, various doses): reduced PKR, p-PKR, and PI4K2A expression
PKR expression ([10]; breast cancer cell lines, 72 hours, various doses): reduced PKR expression
viability of HeLa cells [11]: suppressed more effectively by Pac 1 than by Pac 2
inhibition of kinase activity [12]: not other kinases
